ChEMBL document CHEMBL3991601, “The target landscape of clinical kinase drugs” (Science, 2017)
Active and inactive are the calls of the source.

Tests used:
[1] = target: Serine/threonine-protein kinase 38-like (Homo sapiens, UniProt Q9Y2H1)
[2] = target: Tyrosine-protein kinase Fgr (Homo sapiens, UniProt P09769)
[3] = target: ALK tyrosine kinase receptor (Homo sapiens, UniProt Q9UM73); assay type: subcellular, K-562, COLO 205, SK-N-BE(2) and MV-4-11, Cell lysate; details: read-out: Kd apparent
[4] = target: T1, Dual specificity mitogen-activated protein kinase kinase 4 (Homo sapiens, UniProt P45985)
T1 sequence (P45985 whole entry): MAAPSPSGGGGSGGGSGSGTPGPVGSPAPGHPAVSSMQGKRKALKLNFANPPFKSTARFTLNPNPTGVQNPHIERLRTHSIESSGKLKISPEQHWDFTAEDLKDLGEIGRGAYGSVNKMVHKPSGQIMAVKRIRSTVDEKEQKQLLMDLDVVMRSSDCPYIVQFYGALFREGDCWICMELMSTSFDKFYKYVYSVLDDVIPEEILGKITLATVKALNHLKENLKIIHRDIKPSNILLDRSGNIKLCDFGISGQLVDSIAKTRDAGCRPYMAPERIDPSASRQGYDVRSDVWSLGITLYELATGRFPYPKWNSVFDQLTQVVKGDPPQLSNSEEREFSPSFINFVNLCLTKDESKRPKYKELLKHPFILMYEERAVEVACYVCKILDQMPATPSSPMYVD

[5] = target: Tyrosine-protein kinase JAK2 (Homo sapiens, UniProt O60674)
[6] = target: Dual specificity tyrosine-phosphorylation-regulated kinase 1B (Homo sapiens, UniProt Q9Y463)
[7] = target: Cyclin-dependent kinase 18 (Homo sapiens, UniProt Q07002)
Note: in the data inactive means no Kd found up to 30 µM.

Dual specificity tyrosine-phosphorylation-regulated kinase 1B, sequence (Q9Y463 whole entry): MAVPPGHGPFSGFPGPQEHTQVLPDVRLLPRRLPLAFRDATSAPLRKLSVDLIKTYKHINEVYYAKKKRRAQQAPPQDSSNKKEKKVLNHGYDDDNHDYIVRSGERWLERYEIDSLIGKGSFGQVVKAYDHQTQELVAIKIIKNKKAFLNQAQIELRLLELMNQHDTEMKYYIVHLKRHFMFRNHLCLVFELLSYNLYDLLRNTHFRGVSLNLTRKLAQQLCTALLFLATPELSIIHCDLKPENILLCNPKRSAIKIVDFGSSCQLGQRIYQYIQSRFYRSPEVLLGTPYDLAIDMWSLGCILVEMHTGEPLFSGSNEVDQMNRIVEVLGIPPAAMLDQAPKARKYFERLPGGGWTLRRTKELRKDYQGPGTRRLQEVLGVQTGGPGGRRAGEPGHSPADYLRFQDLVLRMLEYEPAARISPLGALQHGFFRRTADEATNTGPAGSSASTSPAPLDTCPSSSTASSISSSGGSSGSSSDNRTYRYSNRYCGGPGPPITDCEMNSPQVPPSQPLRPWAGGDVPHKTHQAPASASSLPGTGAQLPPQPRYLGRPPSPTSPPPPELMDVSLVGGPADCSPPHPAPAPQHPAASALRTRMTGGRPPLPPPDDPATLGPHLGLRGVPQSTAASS
ALK tyrosine kinase receptor, sequence (Q9UM73 whole entry): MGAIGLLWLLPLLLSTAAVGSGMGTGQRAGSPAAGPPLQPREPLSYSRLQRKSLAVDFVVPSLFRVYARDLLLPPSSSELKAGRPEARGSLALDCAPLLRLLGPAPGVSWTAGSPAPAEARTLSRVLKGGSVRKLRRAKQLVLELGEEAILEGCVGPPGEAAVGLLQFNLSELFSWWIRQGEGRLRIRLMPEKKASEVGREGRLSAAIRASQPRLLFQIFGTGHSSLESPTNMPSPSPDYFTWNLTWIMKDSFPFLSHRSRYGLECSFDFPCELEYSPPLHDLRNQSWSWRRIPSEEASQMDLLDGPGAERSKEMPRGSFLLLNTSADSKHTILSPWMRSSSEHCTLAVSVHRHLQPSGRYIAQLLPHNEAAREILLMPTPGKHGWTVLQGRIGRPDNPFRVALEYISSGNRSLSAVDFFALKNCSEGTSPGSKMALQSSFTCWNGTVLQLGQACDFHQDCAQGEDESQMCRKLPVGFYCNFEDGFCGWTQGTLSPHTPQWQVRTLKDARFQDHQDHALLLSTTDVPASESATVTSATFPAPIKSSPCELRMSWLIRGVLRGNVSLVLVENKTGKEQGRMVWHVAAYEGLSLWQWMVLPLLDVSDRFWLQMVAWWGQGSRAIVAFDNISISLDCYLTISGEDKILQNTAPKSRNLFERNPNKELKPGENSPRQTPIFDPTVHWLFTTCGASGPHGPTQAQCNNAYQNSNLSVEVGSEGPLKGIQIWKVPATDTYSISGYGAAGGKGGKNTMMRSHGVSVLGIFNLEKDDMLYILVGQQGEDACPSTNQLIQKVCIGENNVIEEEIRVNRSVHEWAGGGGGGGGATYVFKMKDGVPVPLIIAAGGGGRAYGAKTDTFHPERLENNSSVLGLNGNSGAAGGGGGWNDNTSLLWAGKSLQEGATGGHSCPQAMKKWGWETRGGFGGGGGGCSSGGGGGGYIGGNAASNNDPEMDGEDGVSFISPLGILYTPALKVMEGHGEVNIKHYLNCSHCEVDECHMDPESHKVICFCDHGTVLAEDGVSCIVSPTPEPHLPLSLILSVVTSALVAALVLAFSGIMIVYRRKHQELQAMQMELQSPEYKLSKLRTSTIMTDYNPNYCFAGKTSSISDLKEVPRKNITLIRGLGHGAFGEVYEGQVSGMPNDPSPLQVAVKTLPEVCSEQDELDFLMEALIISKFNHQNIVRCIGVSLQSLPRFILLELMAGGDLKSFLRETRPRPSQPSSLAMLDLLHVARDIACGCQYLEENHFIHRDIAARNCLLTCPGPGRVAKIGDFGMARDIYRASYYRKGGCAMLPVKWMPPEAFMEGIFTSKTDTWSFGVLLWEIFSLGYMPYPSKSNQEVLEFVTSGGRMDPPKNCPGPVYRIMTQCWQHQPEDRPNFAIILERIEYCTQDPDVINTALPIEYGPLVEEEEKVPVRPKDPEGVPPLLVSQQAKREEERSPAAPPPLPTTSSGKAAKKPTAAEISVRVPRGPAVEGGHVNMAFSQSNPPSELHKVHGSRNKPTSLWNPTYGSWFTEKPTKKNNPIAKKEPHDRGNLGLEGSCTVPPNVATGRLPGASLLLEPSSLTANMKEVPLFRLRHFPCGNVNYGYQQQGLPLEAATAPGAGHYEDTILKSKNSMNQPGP
Tyrosine-protein kinase JAK2, sequence (O60674 whole entry): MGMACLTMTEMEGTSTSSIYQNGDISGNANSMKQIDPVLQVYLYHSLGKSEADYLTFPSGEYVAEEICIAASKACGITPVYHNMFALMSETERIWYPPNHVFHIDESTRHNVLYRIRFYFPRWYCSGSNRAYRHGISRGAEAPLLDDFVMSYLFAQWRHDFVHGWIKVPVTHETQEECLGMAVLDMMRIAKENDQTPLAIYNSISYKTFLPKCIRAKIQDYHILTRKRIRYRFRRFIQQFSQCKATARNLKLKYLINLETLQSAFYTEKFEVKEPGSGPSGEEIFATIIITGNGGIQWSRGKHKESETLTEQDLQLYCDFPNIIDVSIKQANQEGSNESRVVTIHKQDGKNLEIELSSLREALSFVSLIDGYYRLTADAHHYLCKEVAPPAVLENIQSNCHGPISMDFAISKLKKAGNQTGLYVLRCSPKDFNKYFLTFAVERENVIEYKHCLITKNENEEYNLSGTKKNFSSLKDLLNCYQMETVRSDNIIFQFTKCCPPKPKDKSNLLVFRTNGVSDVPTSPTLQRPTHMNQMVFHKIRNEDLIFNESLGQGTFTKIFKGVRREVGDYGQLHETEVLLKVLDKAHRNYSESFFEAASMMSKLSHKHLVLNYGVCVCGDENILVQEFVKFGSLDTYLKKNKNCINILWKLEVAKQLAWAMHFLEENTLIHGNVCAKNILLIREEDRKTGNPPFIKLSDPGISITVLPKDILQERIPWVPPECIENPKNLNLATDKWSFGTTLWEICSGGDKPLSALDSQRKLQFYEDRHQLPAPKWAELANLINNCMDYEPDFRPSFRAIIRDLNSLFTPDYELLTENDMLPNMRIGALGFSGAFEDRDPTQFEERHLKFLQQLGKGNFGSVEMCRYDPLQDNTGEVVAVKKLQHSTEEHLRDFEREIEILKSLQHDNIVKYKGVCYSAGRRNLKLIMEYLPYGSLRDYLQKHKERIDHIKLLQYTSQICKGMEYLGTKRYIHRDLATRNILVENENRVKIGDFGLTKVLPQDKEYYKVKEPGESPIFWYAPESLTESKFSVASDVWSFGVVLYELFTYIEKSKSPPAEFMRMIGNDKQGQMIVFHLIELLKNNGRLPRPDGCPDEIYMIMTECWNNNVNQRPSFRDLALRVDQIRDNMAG
Serine/threonine-protein kinase 38-like, sequence (Q9Y2H1 whole entry): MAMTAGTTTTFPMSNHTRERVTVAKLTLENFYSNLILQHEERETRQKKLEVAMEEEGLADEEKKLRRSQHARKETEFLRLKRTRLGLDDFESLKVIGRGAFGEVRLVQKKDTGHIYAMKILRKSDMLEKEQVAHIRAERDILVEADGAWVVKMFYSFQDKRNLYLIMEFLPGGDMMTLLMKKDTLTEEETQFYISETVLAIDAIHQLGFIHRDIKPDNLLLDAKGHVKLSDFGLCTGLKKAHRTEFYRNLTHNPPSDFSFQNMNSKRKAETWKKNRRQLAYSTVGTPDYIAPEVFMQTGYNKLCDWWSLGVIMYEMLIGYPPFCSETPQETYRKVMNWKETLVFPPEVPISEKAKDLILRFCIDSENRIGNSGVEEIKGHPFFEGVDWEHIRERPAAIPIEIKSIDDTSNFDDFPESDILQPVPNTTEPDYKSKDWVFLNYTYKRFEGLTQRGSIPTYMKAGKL
Tyrosine-protein kinase Fgr, sequence (P09769 whole entry): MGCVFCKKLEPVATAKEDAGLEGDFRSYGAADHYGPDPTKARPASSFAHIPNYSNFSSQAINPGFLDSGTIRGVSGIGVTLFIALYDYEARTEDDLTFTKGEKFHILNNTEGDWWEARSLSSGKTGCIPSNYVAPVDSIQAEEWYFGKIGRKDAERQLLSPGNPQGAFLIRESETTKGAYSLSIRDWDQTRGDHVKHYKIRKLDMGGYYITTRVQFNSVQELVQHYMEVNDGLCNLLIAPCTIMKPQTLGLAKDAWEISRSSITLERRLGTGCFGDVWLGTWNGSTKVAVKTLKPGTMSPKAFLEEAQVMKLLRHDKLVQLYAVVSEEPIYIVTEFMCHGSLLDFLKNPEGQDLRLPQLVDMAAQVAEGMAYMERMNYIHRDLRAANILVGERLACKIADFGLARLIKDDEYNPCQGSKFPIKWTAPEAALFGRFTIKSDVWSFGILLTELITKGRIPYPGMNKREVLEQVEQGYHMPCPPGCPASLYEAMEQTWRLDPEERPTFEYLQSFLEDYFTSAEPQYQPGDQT
Cyclin-dependent kinase 18, sequence (Q07002 whole entry): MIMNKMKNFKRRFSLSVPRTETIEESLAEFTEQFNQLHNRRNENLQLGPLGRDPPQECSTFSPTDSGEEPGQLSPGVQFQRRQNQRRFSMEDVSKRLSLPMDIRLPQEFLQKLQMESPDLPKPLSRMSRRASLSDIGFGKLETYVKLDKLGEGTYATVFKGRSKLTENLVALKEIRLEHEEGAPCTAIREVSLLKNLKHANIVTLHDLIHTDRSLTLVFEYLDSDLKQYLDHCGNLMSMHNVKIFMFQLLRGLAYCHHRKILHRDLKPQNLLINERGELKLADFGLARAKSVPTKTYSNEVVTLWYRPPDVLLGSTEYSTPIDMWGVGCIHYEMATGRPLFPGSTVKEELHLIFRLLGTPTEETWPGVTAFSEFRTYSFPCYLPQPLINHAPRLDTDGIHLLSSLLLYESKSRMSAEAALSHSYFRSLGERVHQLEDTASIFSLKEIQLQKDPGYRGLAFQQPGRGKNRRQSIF

Kd [1]	Kd [4]	SMILES	other results
	> 30 µM (inactive)	COc1cc2ncnc(Nc3ccc(O)cc3)c2cc1OC [WHI-P131]	Kd [3]: > 30 µM (inactive)
> 30 µM (inactive)		Cn1c(=O)n(-c2ccc(C(C)(C)C#N)cc2)c2c3cc(-c4cnc5ccccc5c4)ccc3ncc21 [DACTOLISIB]	
> 30 µM (inactive)		O[C@H]1CC[C@H](Nc2ncc3nc(Nc4c(F)cc(F)cc4F)n([C@H]4CCOC4)c3n2)CC1 [TANZISERTIB]	Kd [6]: > 30 µM (inactive); Kd [3]: > 30 µM (inactive)
> 30 µM (inactive)	> 30 µM (inactive)	Cc1cc(-c2cc(OC(=O)c3ccccc3)ccc2Cl)cc2nnc(Nc3ccc(OCCN4CCCC4)cc3)nc12 [TG100-801]	Kd [6]: > 30 µM (inactive); Kd [5]: > 30 µM (inactive)
> 30 µM (inactive)	> 30 µM (inactive)	O=S(=O)(c1cccc2c(O)nccc12)N1CCCNCC1 [HYDROXYFASUDIL]	Kd [5]: > 30 µM (inactive)
> 30 µM (inactive)	> 30 µM (inactive)	COc1cc(Nc2ncc(F)c(Nc3ccc4c(n3)N(COP(=O)(O)O)C(=O)C(C)(C)O4)n2)cc(OC)c1OC [FOSTAMATINIB]	Kd [6]: > 30 µM (inactive); Kd [5]: > 30 µM (inactive)
> 30 µM (inactive)	> 30 µM (inactive)	Cc1ccc(C(=O)Nc2ccc(Oc3cc4cnn(C)c4cc3-c3cn[nH]c3)c(F)c2)c(=O)n1-c1ccc(F)cc1 [MERESTINIB]	
> 30 µM (inactive)	> 30 µM (inactive)	C[C@@H]1COC(Nc2ccc3ncnc(Nc4ccc(OCc5nccs5)c(Cl)c4)c3c2)=N1 [VARLITINIB]	Kd [3]: > 30 µM (inactive)
> 30 µM (inactive)		O=C(O)c1ccc2c(c1)nc(Nc1cccc(Cl)c1)c1ccncc12 [SILMITASERTIB]	
	> 30 µM (inactive)	O=C(NC[C@H](O)CO)c1ccncc1Nc1ccc(I)cc1F [PIMASERTIB]	Kd [5]: > 30 µM (inactive); Kd [2]: > 30 µM (inactive); Kd [3]: > 30 µM (inactive)

Continued, compound first:

SMILES	Kd [1]	Kd [4]	other results
Cn1cc(-c2[nH]c3cc(NC(=O)[C@H](N)C4CCCCC4)cc4c3c2C=NNC4=O)cn1	> 30 µM (inactive)		Kd [2]: > 30 µM (inactive); Kd [3]: > 30 µM (inactive)
Cc1cc(Nc2nc(N[C@@H](C)c3ncc(F)cn3)ncc2Cl)n[nH]1 [AZD-1480]		> 30 µM (inactive)	Kd [5]: > 30 µM (inactive)
CNC(=O)c1cc(COc2nnc(Nc3ccc(Cl)cc3)c3ccoc23)ccn1 [TELATINIB]			Kd [3]: > 30 µM (inactive)
COc1cccc(Nc2ncnn3ccc(CN4CC[C@@H](N)[C@H](O)C4)c23)c1 [BMS-690514]	> 30 µM (inactive)	> 30 µM (inactive)	
CC(C)CC(=O)Nc1[nH]nc2c1CN(C(=O)C1CCN(C)CC1)C2(C)C [PHA-793887]			Kd [2]: > 30 µM (inactive)
CC1(COc2ccc3c(c2)ncn3-c2ccc3cccc(N4CCC(N)CC4)c3n2)COC1 [CRENOLANIB]	> 30 µM (inactive)	> 30 µM (inactive)	Kd [5]: > 30 µM (inactive)
C=CCn1c(=O)c2cnc(Nc3ccc(N4CCN(C)CC4)cc3)nc2n1-c1cccc(C(C)(C)O)n1 [ADAVOSERTIB]	> 30 µM (inactive)		Kd [7]: > 30 µM (inactive)
O=c1[nH]c([C@@H]2CCCN2)nc2c1oc1ccc(Cl)cc12	> 30 µM (inactive)		
COCCN1CCN(Cc2ccc(-c3n[nH]c4c3C(=O)c3c(NC(=O)NN5CCOCC5)cccc3-4)cc2)CC1 [RGB-286638]			Kd [6]: > 30 µM (inactive)
c1cc(OCCN2CCCCC2)cc(-c2n[nH]c3ccc(-c4nc[nH]n4)cc23)c1 [CC-401]	> 30 µM (inactive)		Kd [7]: > 30 µM (inactive)
COc1cc2nccc(Oc3ccc(NC(=O)C4(C(=O)Nc5ccc(F)cc5)CC4)cc3)c2cc1OC [CABOZANTINIB]			Kd [6]: > 30 µM (inactive); Kd [5]: > 30 µM (inactive); Kd [3]: > 30 µM (inactive)
S=C(NCc1ccc2c(c1)OCO2)N1CCN(c2ncnc3c2oc2ccccc23)CC1 [AMUVATINIB]		> 30 µM (inactive)	
COc1ccc(-c2ccc3ncc4c(c3c2)n(-c2ccc(N3CCNCC3)c(C(F)(F)F)c2)c(=O)n4C)cn1 [BGT-226 FREE BASE]			Kd [2]: > 30 µM (inactive)
COc1cc2ncnc(Nc3ccc(F)c(Cl)c3)c2cc1NC(=O)/C=C/CN1CCCCC1 [DACOMITINIB ANHYDROUS]	> 30 µM (inactive)	> 30 µM (inactive)	
